pEC50: −log10 of the molar value.
Tests used:
HBV [1] = assay: Anti-HBV activity in vitro: extracellular HBV DNA by direct qPCR in HepAD38 cells; type: cell-based; details: Hepatitis B virus, doxycycline-free medium, 96 hours, read-out: HBV inh EC50
Source text: HepAD38 cell line (Ladner et al., Antimicrob Agents Chemother, 1997, 41, 1715-20) was used for HBV inhibition assays. HepAD38 is a subclone, derived from hepatoblastoma cell line HepG2 (ATCC® Number: HB-8065™), that expresses HBV genome under the transcriptional control of a tetracycline-responsive promoter in a TET-OFF system: addition of doxycycline, an antibiotic belonging to the class of tetracycline, suppresses HBV replication, while its removal switches on the process allowing HBV viral particles release in the cell supernatant. […]
Anti-HBV activity in vitro HBV inhibition activity in vitro was performed in 96 multiwell plates. […] From the dose-response curves, half maximal effective concentration (EC50) could be calculated (see also below). […]
Plates were then incubated 96 hours at 37° C. and then subjected to cell viability assays and extracellular HBV quantification, in order to evaluate both the cytotoxic potential and the anti-viral activity of compounds. Cytotoxicity was assessed by a commercial fluorescence assay that measures the metabolic activity of cells, directly related to cell viability (Cell Titer Blue, Promega). Anti-HBV activity was evaluated by quantification of extracellular HBV DNA with direct qPCR. […]

HBV [2] = details: Phase 1b clinical studies; cited from earlier work

Structure (SMILES)	pEC50 (HBV [1])	reduction in HBV DNA (HBV [2])	reduction in serum HBV RNA (HBV [2])
Cn1cc2c(c1C(=O)Nc1ccc(F)c(Cl)c1)OC[C@@]1(CCN(C(=O)C(=O)NCC(F)(F)F)C1)NS2(=O)=O [Example E25, (S)—N-(3-chloro-4-fluorophenyl)-7′-methyl-1-(2-oxo-2-((2,2,2-trifluoroethyl)amino)acetyl)-2′H,4′H,7′H-spiro[pyrrolidine-3,3′-pyrrolo[3,4-b][1,4,5]oxathiazepine]-6′-carboxamide 1′,1′-dioxide]	> 6.30		
C[C@@H](NC(=O)C(=O)N1CCC2(CC1)COc1c(c(Cl)n(C)c1C(=O)Nc1ccc(F)c(C(F)F)c1)S(=O)(=O)N2)C(F)(F)F [Example E35, (R)-8′-chloro-N-(3-(difluoromethyl)-4-fluorophenyl)-7′-methyl-1-(2-oxo-2-((1,1,1-trifluoropropan-2-yl)amino)acetyl)-2′H,4′H,7′H-spiro[piperidine-4,3′-pyrrolo[3,4-b][1,4,5]oxathiazepine]-6′-carboxamide 1′,1′-dioxide]	> 6.30		
O=C(Nc1cc(F)c(F)c(F)c1)c1ccc(F)c(S(=O)(=O)N2CCC(O)CC2)c1 [NVR3-778]		significant reduction	significant reduction
